Source: patent US4195023A, “2-(2-Furoyl)1,2-benzisothiazole-3-one, 2-(2-furoyl) saccharin, and 2-(2-thenoyl) saccharin” (Merck & Co., Inc., priority 1975, dated 1980)

Key:
papain = conditions: cited from earlier work
Papain induced emphysema = conditions: hamster; cited from earlier work
[1] = system: trypsin, chymotrypsin, plasmin, kallikrein, elastase, thrombin and a protease from Aspergillus oryzae; conditions: cited from earlier work
[2] = system: elastase-induced emphysema (Porcine pancreatic elastase); test: Elastase-Induced Emphysema in the Hamster; assay type: in vivo, Male Syrian hamsters; conditions: for Lm, Mean ± S.E.: *P<0.05 versus elastase 0.1 mg i.tr. group
papain-induced emphysema = test: Papain-Induced Emphysema in the Hamster; assay type: in vivo, Male Syrian hamsters; conditions: for I.S.A.3 (internal surface area), Mean ± S.E. / Lm (mean linear intercept), Mean ± S.E.: *p<0.05 versus saline i.tr. + papain aerosol group
Text: In view of the test results, infra, the compounds of formula I, supra, are inhibitors of elastase and may be used to treat emphysema and other disorders which may be treated with elastase inhibitors, such as rheumatoid arthritis. The test procedure described below for papain-induced emphysema in the hamster is representative of recognized procedures used to experimentally papain-induce emphysema in the hamster such as that of Goldring et al. "Sequential Anatomic Changes in Lungs Exposed to Papain and other Proteolytic Enzymes" pages 389-410 in Pulmonary Emphysema and Proteolysis, edited by C. Mittman, Academic Press, Inc., New York and London, 1972.
Male Syrian hamsters in the weight range of 70-90 g were used. Food and water was allowed ad libitum except in the exposure chamber. The animals were anesthetized with pentobarbital 60 mg/kg intraperitoneally (i.p.) and saline (control) or 2-(2-furoyl)-saccharin suspended in distilled water in doses of 0.3, 1 and 3 mg was given intratracheally (i.tr.) through a slightly bent capillary tube (Kimax-51 No. 34500). […] Approximately 40 minutes later the animals were exposed to an aerosol of distilled water or 3% papain (Matheson, Coleman and Bell) for 3 hours. The aerosol was generated by two nebulizers (De Vilbiss 40) attached to the sides of a 28 liter chamber and operated at a pressure of 10 lbs. p.s.i. During this period 80-100 ml of solution was used.
Seven days after the exposure the animals were sacrificed with an overdose of pentobarbital, exanguinated by cutting the renal arteries and the lungs were excised, weighed and placed in a cylindrical 0.45 liter plethysmograph with the trachea tied to a conducting tube. The latter was connected to a respiratory pump (E & M Inst. Co., Houston, Tex.) modified to provide static inflation and deflation of the lungs. Transpulmonary pressure was recorded on the abcissa of a Honeywell 530 x-y recorder through a Grass volumetric pressure transducer (PT 5A). Changes in lung volume were recorded on the ordinate of a spirometer (10 ml capacity) connected to a Harvard linear motion transducer.
The specific static compliance (SSC) of the lungs was determined as follows: the lungs were inflated to a pressure of 20 cm H2 O and then deflated at 30 second intervals by steps of 5 cm H2 O pressure. The procedure was repeated and the second pressure volume defation curve was used for analysis. SSC was then calculated according to the formula ΔV/ΔP×W, where ΔV represents change in lung volume (ml) following change in pressure (ΔP) from 5 to 0 cm H2 O, and W is the lung wet weight (g).
Subsequently, the lungs were degassed and fixed intratracheally with formalin at a constant pressure of 15 cm H2 O for at least 48 hours and then dehydrated at the same pressure. All lungs were cleared in toluene, embedded under vacuum in parafin and each pair was blocked together. Two laterosagittal sections (6μ) of each lung were made and stained with hematoxylin and eosin and the extent of emphysematous lesions was quantitatively estimated by measuring the average intra-alveolar distance (mean linear intercept of Lm). A total of 20 random histologic fields were evaluated both vertically and horizontally and subsequently corrected for distortion and shrinkage. The internal surface area of the lungs measured at post-fixation lung volume (V) and corrected to an arbitrary total lung volume of 3 ml (ISA3) was calculated according to the formula 4V/Lm. In all studies statistical evaluation consisted of analysis of variance and significance was taken at P≤0.05.

[3] = Elastase 0.1 mg + 0.03 mg i.tr.
[4] = Group C: 0.3 mg i.tr. + papain aerosol
[5] = Group D: 1 gm i.tr. (so in the source) + papain aerosol
[6] = Group E: 3 mg i.tr. + papain aerosol

human α1-antitrypsin (HAAT): a glycoprotein in human serum
inhibition of papain (papain): not inhibited | Papain induced emphysema inhibited (Papain induced emphysema): inhibited | inhibitory spectrum [1]: wide inhibitory spectrum covering trypsin, chymotrypsin, plasmin, kallikrein, elastase, thrombin and a protease from Aspergillus oryzae

O=C(c1ccco1)N1C(=O)c2ccccc2S1(=O)=O [2-(2-Furoyl)-saccharin, 2-(2-Furoyl)saccharin]
development of pulmonary emphysematous lesions ([2]; 1 mg added to elastase prior to i.tr. administration): completely prevented the development of pulmonary emphysematous lesions | protective effect (histological changes) ([2]; 0.03 to 0.3 mg added to elastase prior to i.tr. administration): partial but statistically significant protective effect | % inhibition of ΔLm [2, 3]: 48% | ΔLm [2, 3]: +17 μ | Lm, Mean ± S.E. [2, 3]: 96.61 ± 3.22 μ | % inhibition of ΔLm ([2]; Elastase 0.1 mg + 0.1 mg i.tr.): 54% | ΔLm ([2]; Elastase 0.1 mg + 0.1 mg i.tr.): +15 μ | Lm, Mean ± S.E. ([2]; Elastase 0.1 mg + 0.1 mg i.tr.): 94.34 ± 4.31 μ | % inhibition of ΔLm ([2]; Elastase 0.1 mg + 0.3 mg i.tr.): 51% | ΔLm ([2]; Elastase 0.1 mg + 0.3 mg i.tr.): +16 μ | Lm, Mean ± S.E. ([2]; Elastase 0.1 mg + 0.3 mg i.tr.): 96.27 ± 2.36 μ | % inhibition of ΔLm ([2]; Elastase 0.1 mg + 1.0 mg i.tr.): 100% | ΔLm ([2]; Elastase 0.1 mg + 1.0 mg i.tr.): -2 μ | Lm, Mean ± S.E. ([2]; Elastase 0.1 mg + 1.0 mg i.tr.): 77.68 ± 2.54 μ | % Inhibition (S.S.C.) (papain-induced emphysema; 0.3 mg i.tr. + papain aerosol): 34% | S.S.C. (specific static compliance) ΔV/ΔP × W, Mean ± S.E. (papain-induced emphysema; 0.3 mg i.tr. + papain aerosol): 0.529 ± 0.041 | % Inhibition (S.S.C.) (papain-induced emphysema; 3 mg i.tr. + papain aerosol): 74% | S.S.C. (specific static compliance) ΔV/ΔP × W, Mean ± S.E. (papain-induced emphysema; 3 mg i.tr. + papain aerosol, *P<0.05 versus saline i.tr. + papain aerosol group): 0.360 ± 0.017 | Inhibition, dose relation and significance (papain-induced emphysema; 0.3, 1 and 3 mg i.tr., significance at P≤0.05): dose related but significant only for doses of 1 and 3 mg | % Inhibition (S.S.C.) (papain-induced emphysema; 1 gm i.tr. (so in the source) + papain aerosol): 48% | S.S.C. (specific static compliance) ΔV/ΔP × W, Mean ± S.E. (papain-induced emphysema; 1 gm i.tr. (so in the source) + papain aerosol, *P<0.05 versus saline i.tr. + papain aerosol group): 0.471 ± 0.039 | % inhibition (I.S.A.3) (papain-induced emphysema; [4]): 58% | % inhibition (Lm) (papain-induced emphysema; [4]): 69% | I.S.A.3 (internal surface area), Mean ± S.E. (papain-induced emphysema; [4]): 400 + 38 cm^2 | Lm (mean linear intercept), Mean ± S.E. (papain-induced emphysema; [4]): 88.44 ± 2.54 μ | % inhibition (I.S.A.3) (papain-induced emphysema; [5]): 42% | % inhibition (Lm) (papain-induced emphysema; [5]): 59% | I.S.A.3 (internal surface area), Mean ± S.E. (papain-induced emphysema; [5]): 1344 ± 34 cm^2 | Lm (mean linear intercept), Mean ± S.E. (papain-induced emphysema; [5]): 90.87 ± 2.40 μ | % inhibition (I.S.A.3) (papain-induced emphysema; [6]): 65% | % inhibition (Lm) (papain-induced emphysema; [6]): 84% | I.S.A.3 (internal surface area), Mean ± S.E. (papain-induced emphysema; [6]): 1445 ± 54 cm^2 | Lm (mean linear intercept), Mean ± S.E. (papain-induced emphysema; [6]): 84.39 ± 2.68 μ | development of the emphysematous lesions (papain-induced emphysema; i.tr., evaluated by both physiologic and histologic methods): prevented the development of the emphysematous lestions
